Experimental data published in patent publication US20220204449A1, “BIASED AGONISTS OF OPIOID RECEPTORS” (ILDONG PHARMACEUTICAL CO., LTD., priority 2020, published 2022).
“Also recorded” adds a separate entry of the source.

How the values were obtained:
Assay type in all cases: cell-based
[1] = target: T1, human δ-opioid receptor, OPRD (Homo sapiens, UniProt P41143); assay: cAMP accumulation assay (Gi pathway), OPRD cell line; details: for OPRD Gi Hill slope: cAMP concentration-response curve; for EC50: read-out: OPRD Gi EC50
T1 construct: host or cells: HEK-293 overexpressing β-arrestin2 fused to a β-galactosidase fragment
T1 sequence (P41143 whole entry, the tested form may be a part): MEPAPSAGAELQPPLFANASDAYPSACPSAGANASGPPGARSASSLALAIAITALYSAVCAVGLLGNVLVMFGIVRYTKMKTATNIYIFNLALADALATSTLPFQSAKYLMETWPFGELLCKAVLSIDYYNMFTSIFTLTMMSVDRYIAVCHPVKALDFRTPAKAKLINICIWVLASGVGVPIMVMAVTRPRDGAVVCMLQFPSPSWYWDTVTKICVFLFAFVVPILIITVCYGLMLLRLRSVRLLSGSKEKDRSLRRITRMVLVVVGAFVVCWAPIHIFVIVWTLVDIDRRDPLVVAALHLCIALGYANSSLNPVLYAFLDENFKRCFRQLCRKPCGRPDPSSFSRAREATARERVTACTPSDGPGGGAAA
Source text: (§1) Human embryonic kidney 293 (HEK-293) cells which transfected overexpress (3-arrestin2 fused β-galactosidase fragment were purchased from DiscoverX. Human OPRM1 gene (NM 000914.3, encoding human μ-opioid receptor, OPRM) and Human OPRD1 gene (NM 000911.3, encoding human δ-opioid receptor, OPRD) were fused to a pCMV-ProLink plasmid which contains complementary β-galactosidase fragment purchased from DiscoverX. To generate human OPRM1 or OPRD1 expression cell lines, HEK-293 cells were transfected to prepared plasmid and grown in DMEM medium with 10% fetal bovine serum, 150 μg/mL Hygromycin B and 500 μg/mL G418.
(§2) Cyclic Adenosine Monophosphate (cAMP) Accumulation
(§3) The agonist's efficacy to the G protein pathway was determined by changes in the cAMP level using the Cisbio cAMP detection kit. The cells used in cAMP assays are the same cell line as used in the β-arrestin 2 assays. The human opioid receptor activates the Gαi so intracellular cAMP accumulation is inhibited. Cisbio detection kit uses labeled cAMP and antibody. This system proceeds to compete with endogenous cAMP. If Gαi is activated, intracellular cAMP decreases. This assures that labeled-cAMP binds more with the antibody so that time-resolved fluorescence […].
(§4) cAMP and β-arrestin assays described above were conducted to decide whether candidate compounds were μ- and/or δ-opioid receptor bias agonists for the G-protein pathway. All assays produced the concentration-response curve, and the curve data was validated by a quality control factor named Z′ factor. Because half-maximal effect concentration (EC50) depends on the population of receptors, the maximal asymptote of the concentration curve was used. Efficacy data of candidates was normalized by comparison to reference agonists DAMGO and SNC80 for OPRM and OPRD.
(§5) The hill slope describes the steepness of the curve. […] We set the appropriate interval of hill slope as 0.8<n<1.5 which maintains the sigmoidal curve shape.

[2] = target: T2, human μ-opioid receptor, OPRM (Homo sapiens, UniProt P35372); assay: PathHunter β-arrestin 2 assay, OPRM cell line
T2 construct: host or cells: HEK-293 overexpressing β-arrestin2 fused to a β-galactosidase fragment
T2 sequence (P35372 whole entry, the tested form may be a part): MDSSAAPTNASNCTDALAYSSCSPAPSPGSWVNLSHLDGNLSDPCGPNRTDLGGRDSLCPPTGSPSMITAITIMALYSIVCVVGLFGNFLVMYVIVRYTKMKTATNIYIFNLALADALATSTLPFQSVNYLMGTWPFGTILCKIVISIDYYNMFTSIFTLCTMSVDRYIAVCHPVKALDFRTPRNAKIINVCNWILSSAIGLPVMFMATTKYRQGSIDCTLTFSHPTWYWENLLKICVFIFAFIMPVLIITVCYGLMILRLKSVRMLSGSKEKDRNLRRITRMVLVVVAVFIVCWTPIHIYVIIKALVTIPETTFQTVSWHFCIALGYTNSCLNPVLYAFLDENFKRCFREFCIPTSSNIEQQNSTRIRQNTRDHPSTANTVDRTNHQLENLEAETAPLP
Source text: as §1
(§6) The PathHunter enzyme assay was performed to measure the agonist's capability of β-arrestin 2 pathway activation. When agonists bind to G protein-coupled receptor (GPCR), the receptor pathway is sequentially activated from G protein to β-arrestin 2 recruitment.
(§7) Because […] β-arrestin 2 and C-terminal of GPCR have a fragment of β-galactosidase, recruitment of β-arrestin 2 to GPCR forms the whole β-galactosidase. The functionality of the whole β-galactosidase is detected by chemiluminescence (FlexStation3, Molecular Devices).
as §4

[3] = target: T1, human δ-opioid receptor, OPRD; assay: PathHunter β-arrestin 2 assay, OPRD cell line
Source text: as §1, §6, §7, §4

[4] = target: T2, human μ-opioid receptor, OPRM; assay: Dominant assay: cAMP assay with/without irreversible antagonist β-FNA, OPRM cell line
Source text: (§8) To confirm the agonist's efficacy in a nature-like system, we need inactivation of target receptors on the cell membrane. Most cell lines have an abundant target receptor population (also known as spare receptors). Therefore, agonists have more opportunity to constitute agonist-receptor conformation. In this environment, not only full agonists but also partial agonists can reach maximal response.
(§9) If the partial agonist is selected as a full agonist, translational in vivo research will likely fail.
(§10) Non-competitive, irreversible antagonists can be applicable to judge the pharmacological character of agonists because they permanently decrease the receptor population in the cell line system. β-FNA or β-CNA is used as a non-competitive and irreversible antagonist for OPRM, OPRD. Before cAMP assay, cells were incubated with β-FNA or β-CNA for 40 minutes. Afterwards, the procedure is the same.
(§11) If a partial agonist compound acts as a full agonist due to receptor population (pseudo full agonist), it cannot sustain maximal response with reduced receptor population. However, a full agonist compound maintains their maximal response even though increased EC50.

[5] = target: T2, human μ-opioid receptor, OPRM; assay: cAMP accumulation assay (Gi pathway), OPRM cell line; details: Table 1
Source text: as §1, §2, §3, §4, §5

[6] = target: T1, human δ-opioid receptor, OPRD; assay: Dominant assay: cAMP assay with/without irreversible antagonist β-CNA, OPRD cell line; details: for completeness of concentration-response curve, in words: OPRD system
Source text: as §8, §9, §10, §11

[7] = addition of β-FNA, Example 3, Tables 5-7, read-out: OPRM Gi β-FNA (+) EC50
[8] = addition of β-FNA, Example 3, Tables 5-7, read-out: OPRM Gi β-FNA (+) Emax (%)
[9] = addition of β-FNA, repeated dominant assay, Example 4, Tables 8-10, read-out: OPRM Gi β-FNA (+) EC50
[10] = addition of β-FNA, repeated dominant assay, Example 4, Tables 8-10, read-out: OPRM Gi β-FNA (+) Emax (%)
[11] = no addition of β-FNA, Example 3, Tables 5-7, read-out: OPRM Gi β-FNA (−) EC50
[12] = no addition of β-FNA, Example 3, Tables 5-7, read-out: OPRM Gi β-FNA (−) Emax (%)
[13] = no addition of β-FNA, repeated dominant assay, Example 4, Tables 8-10, read-out: OPRM Gi β-FNA (−) EC50
[14] = no addition of β-FNA, repeated dominant assay, Example 4, Tables 8-10, read-out: OPRM Gi β-FNA (−) Emax (%)
[15] = addition of β-CNA, Example 3, Tables 5-7, read-out: OPRD Gi β-CNA (+) EC50
[16] = addition of β-CNA, Example 3, Tables 5-7, read-out: OPRD Gi β-CNA (+) Emax (%)
[17] = addition of β-CNA, repeated dominant assay, Example 4, Tables 8-10, read-out: OPRD Gi β-CNA (+) EC50
[18] = addition of β-CNA, repeated dominant assay, Example 4, Tables 8-10, read-out: OPRD Gi β-CNA (+) Emax (%)
[19] = no addition of β-CNA, Example 3, Tables 5-7, read-out: OPRD Gi β-CNA (−) EC50
[20] = no addition of β-CNA, repeated dominant assay, Example 4, Tables 8-10, read-out: OPRD Gi β-CNA (−) EC50
[21] = no addition of β-CNA, Example 3, Tables 5-7
[22] = no addition of β-CNA, repeated dominant assay, Example 4, Tables 8-10
[23] = addition of β-CNA, Example 3, Tables 5-7

Structure (SMILES) | OPRD Gi Hill slope ([1]; Table 1) | EC50 ([1]; Table 1, cAMP) | EC50 [4, 7] | Emax [4, 8] | EC50 [4, 9] | Emax [4, 10] | EC50 [4, 11] | Emax [4, 12] | EC50 [4, 13] | Emax [4, 14] | completeness of concentration-response curve, in words [6] | EC50 [6, 15] | Emax [6, 16] | EC50 [6, 17] | Emax [6, 18] | EC50 [6, 19] | EC50 [6, 20] | OPRM β-ARR2 Emax (%) ([2]; Example 3, Tables 5-7) | OPRD β-ARR2 Emax (%) ([3]; Example 3, Tables 5-7) | OPRD Gi β-CNA (−) Emax (%) [6, 21] | further results
CN(C)C(CNC(=O)Cc1ccc2c(c1)OCCO2)c1ccccc1 (racemic) [Compound 1, 2-(2,3-dihydro-1,4-benzodioxin-6-yl)-N-[2-(dimethylamino)-2-phenylethyl]acetamide] | 1.39 | 4.16 µM | 5.86 µM | 88.2% | 3.88 µM | 67.5% | 2.09 µM | 101% | 1.16 µM | 100% | curve was cut due to the X-axis limitation | 0.009 µM | 108% | 7.87 µM | 46.6% | 0.00491 µM | 8.77 µM |  |  |  | Emax ([1]; Table 1, cAMP, normalized to reference agonist SNC80): 88.9%; Emax ([2]; Example 3, Tables 5-7, read-out: OPRM β-ARR2 Emax (%)): 12.9%; Emax ([2]; Table 1, normalized to reference agonist DAMGO, read-out: OPRM arrestin Emax, %): 12.9%; Emax ([3]; Example 3, Tables 5-7, read-out: OPRD β-ARR2 Emax (%)): 7.37%; Emax ([3]; Table 1, normalized to reference agonist SNC80, read-out: OPRD arrestin Emax, %): 7.37%; maximal response on decreasing receptor population (dominant tendency), in words ([4]; OPRM cell lines, β-FNA): showed a similar pattern as compared to DAMGO; EC50 ([5]; cAMP): 0.73 µM; OPRM Gi Hill slope ([5]; cAMP concentration-response curve): 0.99; Emax ([5]; cAMP, normalized to reference agonist DAMGO): 102%; Emax ([6]; no addition of β-CNA, Example 3, Tables 5-7, read-out: OPRD Gi β-CNA (−) Emax (%)): 113%; Emax ([6]; no addition of β-CNA, repeated dominant assay, Example 4, Tables 8-10, read-out: OPRD Gi β-CNA (−) Emax (%)): 104%
Cc1ccccc1NC(=O)NCC(c1ccc2c(c1)CCO2)N(C)C (single isomer, unassigned) [Compound 8] |  |  | 14.2 µM | 43.2% | 7.78 µM | 77.5% | 0.734 µM | 84.7% | 0.219 µM | 91.6% |  | 35.7 µM | 42.7% | 8.69 µM | 42.7% | 15 µM | 16.9 µM | 5.4% | 5.1% | 95.54% | β-arrestin pathway activation / bARR2 recruitment, in words ([2]; OPRM): lower bARR2 recruitment as compared to morphine; β-arrestin pathway activation / bARR2 recruitment, in words ([3]; OPRD): lower bARR2 recruitment as compared to morphine; OPRD Gi β-CNA (−) Emax (%) [6, 22]: 102.7%
Cc1ccccc1NC(=O)NCC(c1ccc2c(c1)CCO2)N(C)C (single isomer, unassigned) [Compound 9] |  |  | 1.66 µM |  | 0.791 µM |  | 0.0733 µM |  | 0.0713 µM |  |  | 5.86 µM |  | 5.86 µM |  | 2.79 µM | 18.1 µM | 22.9% | 16.1% | 66.82% | OPRM Gi β-FNA (+) Emax (%) ([4]; addition of β-FNA, Example 3, Tables 5-7): 52.64%; OPRM Gi β-FNA (+) Emax (%) ([4]; addition of β-FNA, repeated dominant assay, Example 4, Tables 8-10): 74.49%; OPRM Gi β-FNA (−) Emax (%) ([4]; no addition of β-FNA, Example 3, Tables 5-7): 98.76%; OPRM Gi β-FNA (−) Emax (%) ([4]; no addition of β-FNA, repeated dominant assay, Example 4, Tables 8-10): 91.98%; OPRD Gi β-CNA (+) Emax (%) [6, 23]: 51.61%; OPRD Gi β-CNA (+) Emax (%) ([6]; addition of β-CNA, repeated dominant assay, Example 4, Tables 8-10): 51.61%; OPRD Gi β-CNA (−) Emax (%) [6, 22]: 139%
C[C@@H](Cc1ccsc1)NC(=O)NC[C@H](Cc1ccc(O)cc1)N(C)C [PZM21, reference compound] | 0.83 | 0.23 µM |  |  |  |  |  |  |  |  | produced a full concentration-response curve | 0.288 µM |  |  |  | 0.119 µM |  |  | 3.41% | 95.97% | Gi pathway agonism, in words ([1]; OPRD): OPRM, OPRD dual biased agonist; OPRD arrestin Emax, % ([3]; Table 1, normalized to reference agonist SNC80): 3.41%; maximal response on decreasing receptor population (dominant tendency), in words ([6]; OPRD cell lines, β-CNA): more susceptible to decreasing receptor populations than SNC80; also recorded: less resistance to decreasing spare receptors than SNC80; OPRD Gi β-CNA (+) Emax (%) [6, 23]: 58.77%
